In patent US8420052B2, “Imaging agents useful for identifying AD pathology” (Siemens Medical Solutions USA, Inc., priority 2008, dated 2013):

Test system: amyloid plaques and fibrils in human brain slices
Assay: Human brain slice competition assay using autoradiography
Assay type: binding
Details: radiolabeled tracer approx. 20 uCi, 90 min rt, lower = more displacement; for _max low dose (percent dose remaining relative to control with no blocker): blocker 0.25 uM; for _max high dose (percent dose remaining relative to control with no blocker): blocker 2.5 uM
Procedure: Human Brain Slice Competition Assay Using Autoradiography
Briefly, 5 micron thick human brain slices from regions of the brain bearing high amyloid plaque and fibril burden were incubated with approximately 20 uCi of a radiolabeled tracer in 2.5%:2.5%:95% DMSO:EtOH:PBS in the presence of blocker (2.5 and 0.25 uM total concentration) or absence of blocker (control). The slices were incubated at rt for 90 min. The slices were then quickly washed in PBS, followed by 70% EtOH:PBS for 2 min, then 30% EtOH:PBS for 2 min and then quickly washed with PBS. The slices were dried for 30 min and then exposed on autoradiographic film for 20 min. The brain slices were then removed from the slide and the radioactivity counted in a gamma counter. The percent dose remaining, relative to a control with no blocker, at 0.25 uM is represented in the “_max low dose” column. The percent dose remaining, relative to a control with no blocker, at 2.5 uM is represented in the “_max high dose” column.

Compound | _max low dose (percent dose remaining relative to control with no blocker) | _max high dose (percent dose remaining relative to control with no blocker)
CNc1ccc(-c2nc3ccccc3s2)cc1 [BTA1, reference compound] | 33.66% | 17.80%
FCCOc1ccc2c(c1)[nH]c1ccccc12 [CB1] | 74.86% | 30.34%
FCCOCCOCCOc1ccc2c(c1)[nH]c1ccccc12 [CB3] | 69.78% | 29.53%
CNc1ccc2c(c1)[nH]c1cc(OCCOCCOCCF)ccc12 [CB4] | 54.17% | 16.96%
Cn1c2ccccc2c2ccc(OCCOCCOCCF)cc21 [CB6] | 111.02% | 113.69%
CN(C)c1ccc2c(c1)[nH]c1cc(OCCOCCOCCF)ccc12 [CB7] | 42.64% | 15.14%
CNc1ccc2[nH]c3ccc(OCCOCCOCCF)cc3c2c1 [CB8] | 95.89% | 108.49%
O=CNc1ccc2c(c1)[nH]c1cc(OCCOCCOCCF)ccc12 [CB9] | 93.92% | 80.06%
O=CNc1ccc2c(c1)[nH]c1cc(OCCOCCOCCF)ccc12 [CB10] | 69.29% | 21.60%
O=CNc1ccc2c(c1)[nH]c1cc(OCCF)ccc12 [CB12] | 59.97% | 12.29%
COc1ccc2[nH]c3ccc(NCCF)cc3c2c1 [CB13] | 108.14% | 110.57%
CN(CCCCF)c1ccc2c(c1)[nH]c1cc(O)ccc12 [CB14] | 114.19% | 49.02%
CC(=O)n1c2ccccc2c2ccc(OCCOCCOCCF)cc21 [CB17] | 91.06% | 62.03%
O=C(c1ccccc1)n1c2ccccc2c2ccc(OCCOCCOCCF)cc21 [CB21] | 104.81% | 94.00%
O=c1cc(-c2ccccc2)c2ccc(O)c(O)c2o1 [Compound 73] | 68.43% | 34.37%
COc1ccc2cc(-c3ccn[nH]3)ccc2c1 [Compound W1] | 70.48% | 35.38%
CN(C)c1ccc(/C=C2/C(=O)Nc3ccccc32)cc1 [Compound W12] | 105.11% | 45.98%
Oc1cccc2[nH]c3ccccc3c12 [Compound W19] | 100.46% | 89.32%
Nc1ccc2c(c1)oc1ccccc12 [Compound W20] | 95.11% | 43.52%
O=C(/C=C/C=C/c1ccccc1)c1cccs1 [Compound W24] | 55.16% | 23.51%

Compound | _max low dose (percent dose remaining relative to control with no blocker) | _max high dose (percent dose remaining relative to control with no blocker)
COc1cc2c(cc1N)oc1ccccc12 [Compound W33] | 82.52% | 36.72%
CC(=O)Nc1ccc2sc3ccccc3c2c1 [Compound W34] | 84.84% | 73.74%
Nc1ccc2c(c1)[nH]c1cc(OCc3ccccc3)ccc12 [Compound W42] | 49.95% | 17.60%
Nc1ccc2[nH]c3ccc(OCc4ccccc4)cc3c2c1 [Compound W60] | 105.87% | 115.14%
COc1ccc2c(c1)[nH]c1c(C)nccc12 [Compound W65] | 105.49% | 94.16%
c1ccc2c(c1)[nH]c1cnccc12 [Compound W67] | 101.83% | 94.93%
c1ccc2c(c1)[nH]c1cc(OCCOCCOCCOc3ccc4c(c3)[nH]c3ccccc34)ccc12 [Compound W70] | 88.20% | 89.53%
CN(C)c1ccc(/C=C2\C(=O)Nc3ccc(F)cc32)cc1 [Compound W71] | 104.61% | 88.00%
Oc1cccc(-c2cc3ccccn3c2)c1 [Compound W73] | 66.38% | 35.16%
N#Cc1ccc(/C=C2\C(=O)Nc3ccc(F)cc32)cc1 [Compound W79] | 92.77% | 96.90%
c1ccc2c(c1)Cn1c-2nc2ccccc21 [Compound W81] | 96.06% | 81.94%
FCCOc1cccc(-c2cc3ccccn3c2)c1 [Compound W84] | 97.22% | 40.32%
O=c1sc2ccccc2n1/C=C/c1ccccc1 [Compound W88] | 29.58% | 7.65%
CC(=O)c1ccc2[nH]c(=O)sc2c1 [Compound W92] | 112.87% | 88.58%
FCCOCCOCCOc1ccc2c(c1)[nH]c1sc3ccccc3c12 [Compound W94] | 103.76% | 40.74%
N#CC1c2ccc(O)cc2N2C=CC=CC12 (stereo not drawn) [Compound W99] | 87.14% | 76.06%
NC(=O)c1ccc2cc(-c3cccc([N+](=O)[O-])c3)cn2c1 [Compound W100] | 97.53% | 75.02%
CN(CCOCCOCCF)c1ccc2c(c1)[nH]c1cc(O)ccc12 [Compound W101] | 81.33% | 73.62%
CN(C)c1ccc2c3ccc(OCCF)cc3n(CCF)c2c1 [Compound W102] | 91.92% | 92.00%
